According to US20250290065A1, “METHODS FOR MODULATING HUMAN L1 RETROTRANSPOSONS RNA AND COMPOSITIONS FOR USE THEREIN” (King Abdullah University of Science and Technology, priority 2019, published 2025):
“Also recorded” adds a separate entry of the source.

Columns and labels:
[1] = tested on: Line 1 retrotransposition; conditions: Nishikawa et al. 2018; Banuelos-Sanchez et al. 2019; cited from earlier work
[2] = tested on: L1 promoter; conditions: Terasaki, et al., PLoS One 2013; cited from earlier work
[3] = tested on: BAX, IFNa2, IFNb1, IFI44 expression in MSC
Experimental: L1 RNA was transfected in differentiating osteoblasts at day 7 using Lipofectamine™ MessengerMAX™ (Invitrogen, USA, Cat. No. LMRNA003) with a modified protocol were a lower RNA amount (10 times less) than recommended was transfected. RFP mRNA (System Bioscience, USA, Cat. No. MR800A-1) was used as negative control.
Real time quantitative polymerase chain reaction (qPCR) was performed with 7900HT Fast Real Time PCR system (Applied Biosystems). Each sample was analyzed in triplicate and normalized with the endogenous control, Ribosomal Protein L13A (RPL13A) for osteogenesis and Tata Binding Protein (TBP) for adipogenesis, for cDNA input concentration. No template and no RT were included as negative controls. For each 15 μl reaction, 10 ng (1 ng for L1) of cDNA was mixed with 1 μM specific primers mix and 7.5 μl of Sybr Select Master mix (#4472908, Life Technologies). The reaction was incubated at 95° C. for 10 minutes, followed by 40 cycles of denaturation at 95° C. for 15 seconds, annealing at 60° C. for 30 seconds and elongation at 72° C. for 30 seconds. Ct values were calculated by 7900HT Fast Real Time PCR RQ manager software (Applied Biosystems) and then normalized as DCt between the gene of interest and the endogenous calibrator. […] In all primer pairs each primer matches a different exon. Amplicons length was 80-130 nucleotides.

[4] = tested on: OP patients derived MSC differentiating to osteoblasts; assay: L1 RNA transfection of MSC from osteoporotic patients, bone matrix quantification; type: cell-based, human
Experimental: (§1) Cells were washed in PBS and fixed with 4% Paraformaldehyde for 15 minutes. Mineralization was assessed by using the OsteoImage Mineralization Assay (#LOPA503, Lonza) according to manufacturer's indication. Mineralization was quantitatively assayed with GloMax discover plate reader (Promega) with appropriate excitation (492)/emission (520) wavelengths.

[5] = tested on: differentiating osteoblasts; assay: Mineralization assay (OsteoImage) in differentiating osteoblasts; type: cell-based, human; conditions: 150 μM, after 21 days of differentiation, vs DMSO
Experimental: Bone marrow-derived MSC (#C-12974, PromoCell GmbH, Heidelberg, Germany) were grown in 0.1% gelatin solution (#07903, StemCell)-coated plates until passage 4. Growth medium (#PT-3001, Lonza) was changed every 3 days. Osteogenic differentiation was induced by replacing growth medium with Osteogenic Differentiation Medium (#PT-3002, Lonza) on 70% confluent cells seeded on 1:50 Matrigel (#356237, Corning)-coated plates. Adipogenic differentiation was induced by three cycles of induction/maintenance Adipogenic Differentiation Medium (#PT-3004, Lonza) on post-confluent cells seeded on 1:50 MatMatrigel (#356237, Corning)-coated plates.
as §1

[6] = tested on: human mesenchymal stem cells; assay: Cell cycle analysis (Propidium Iodide, FACS); type: cell-based; conditions: 3TC vs DMSO; data not shown
Experimental: 2×105 MSCs were trypsinized for 5 min at 37° C., washed with PBS and 2% BSA, passed through a […] strainer (#352350, Corning) and then fixed at −20° C. for 30 min in 70% ethanol. After washing with PBS and 4% BSA, cells were resuspended in PBS and incubated 1 hour at 37° C. with RNAse. Cells were then washed and resuspended in 100 μl of Flow Cytometry Staining Buffer (R&D System, #FC001). 10 μl of 1 mg/ml Propidium iodide (PI) staining solution (#P3566) was added to the single cell solution, gently mixed, and incubated 5 min in the dark. Cell cycle analysis was performed on BD FACSCanto II Flow Cytometry System, using BD FACSDiva Software.

Row | Compound | L1 promoter activity [2] | also measured
1 | COc1cc(CNC(=O)CCCC/C=C/C(C)C)ccc1O [Capsaicin] | – | Line 1 retrotransposition [1]: inhibit Line 1 retrotansposition
2 | CC1=C(CC(=O)O)c2cc(F)ccc2/C1=C\c1ccc([S+](C)[O-])cc1 (centres unmarked) [sulindac] | induce L1 promoter activity | –
3 | L1 RNA: Cy5-conjugated synthetic full-length human L1 mRNA, in vitro transcribed, capped, 5-methyl-C, Pseudo-U substituted, polyadenylated (TriLink) | – | induction of apoptosis and Interferon response genes [3]: neither apoptosis nor Interferon response genes were induced; osteoblasts maturation ([4]; in vitro differentiating MSC, all patients tested): greatly enhanced osteoblasts maturation; bone matrix production / mineralized matrix ([4]; transfection at day 7 of osteogenesis, three days after transfection, 4 OP patients, vs random RNA): restored bone matrix production; also recorded: fully rescued the production of mineralized matrix
4 | c1ccc2c(c1)cc1ccc3cccc4ccc2c1c34 [benzo[a]pyrene] | induce L1 promoter activity | –
5 | Nc1nc(=O)n([C@@H]2CS[C@H](CO)O2)cc1F [emtricitabine] | – | Line 1 retrotransposition [1]: inhibit Line 1 retrotansposition
6 | O=C1NC(=S)NC(=O)C1C(=O)Nc1ccccc1 [merbarone] | induce L1 promoter activity | –
7 | CC[C@@]1(O)C(=O)OCc2c1cc1n(c2=O)Cc2cc3ccccc3nc2-1 [camptothecin] | induce L1 promoter activity | –
8 | O=C(O)c1ccccc1Nc1cccc(C(F)(F)F)c1 [flufenamic acid] | induce L1 promoter activity | –
9 | O=C(O)c1cc(-c2ccc(F)cc2F)ccc1O [diflunisal] | induce L1 promoter activity | –
10 | NC(=O)c1ccccc1O [salicylamide] | induce L1 promoter activity | –
11 | Nc1ccn([C@@H]2CS[C@H](CO)O2)c(=O)n1 [Lamivudine 3TC, Lamivudine] | – | mineral deposition (mineralization) [5]: −69%; mineral deposition (mineralization) ([5]; listed as 3TC): −60%; cell cycle analysis and apoptotic cell number in sub-G1 peak [6]: no significant differences
12 | C=C1[C@@H](C)[C@H]2[C@H](Cc3ccccc3)NC(=O)[C@]23[C@H](OC(C)=O)/C=C/[C@@](C)(O)C(=O)[C@@H](C)C/C=C/[C@H]3[C@@H]1O [cytochalasin D] | induce L1 promoter activity | –
13 | CC[C@]1(O)C[C@@H]2CN(CCc3c([nH]c4ccccc34)[C@@](C(=O)OC)(c3cc4c(cc3OC)N(C)[C@H]3[C@@](O)(C(=O)OC)[C@H](OC(C)=O)[C@]5(CC)C=CCN6CC[C@]43[C@@H]65)C2)C1 [vinblastine] | induce L1 promoter activity | –
